Results: ChEMBL document CHEMBL2095176, “GSK Tuberculosis Screening Data”
≈ marks a conversion by molar mass, not a printed value.

System: Mycobacterium tuberculosis variant bovis BCG
Assay: microbe, parasite or virus in culture
Format: functional

Work on `COc1cc(C2c3c(-c4ccccc4)n[nH]c3C(=O)N2c2ccc(Cl)cc2)ccc1O` (stereo not given) yielded an MIC90 of 5.4 µM (≈ 2.33 µg/mL).

With `Cc1ccc2nc(SCC(=O)N(C(C)C)C(C)C)[nH]c2c1` the MIC90 was 9.9 µM (≈ 3.02 µg/mL).

Work on `O=C(Nc1nc(-c2ccccn2)cs1)c1cc2c(s1)CCCC2` yielded an MIC90 of 5.5 µM (≈ 1.88 µg/mL).

For `CCc1c(C)nc(-n2nc(C)cc2NC(=O)C(CC)c2ccccc2)[nH]c1=O` (stereo not given), the MIC90 was 1.2 µM (≈ 0.455 µg/mL).

`O=C(NC1CCNCC1)c1nn(-c2ccc(Cl)cc2)c(=O)cc1N1CCC(Cc2ccccc2)CC1` showed an MIC90 of 7.6 µM (≈ 3.85 µg/mL).

Work on `c1ccc2c(Cc3nnc(Sc4ccnc(N5CCN(c6ccncc6)CC5)n4)n3CCCN3CCOCC3)c[nH]c2c1` yielded an MIC90 of 2.2 µM (≈ 1.31 µg/mL).

`Cc1ccc2c(OC3CCNCC3)cccc2n1` was tested, and the MIC90 was 5.9 µM (≈ 1.43 µg/mL).

For `Cc1cc(NC(=O)COc2ccc(Cl)cc2)n(-c2nc(C)c(C)c(=O)[nH]2)n1`, the MIC90 was 4.8 µM (≈ 1.86 µg/mL).

For `O=C(c1cnn(C(=O)c2ccco2)c1)c1ccccc1O`, the MIC90 was 2.5 µM (≈ 0.706 µg/mL).

Work on `Cc1onc(-c2ccccc2)c1C(=O)Nc1nc(-c2ccccn2)cs1` yielded an MIC90 of 4.3 µM (≈ 1.56 µg/mL).

`C=CCNCCS(=O)(=O)c1cccc(Nc2ccc(-c3ccsc3)cn2)c1` was tested, and the MIC90 was 6 µM (≈ 2.4 µg/mL).

Work on `CN1CCN(c2ccc(C(F)(F)F)cc2NC(=O)c2ccccn2)CC1` yielded an MIC90 of 7.2 µM (≈ 2.62 µg/mL).

Molecule `CSc1cccc(-c2nnc(NC(=O)c3ccc(Cl)s3)o2)c1` has an MIC90 of 9.6 µM (≈ 3.38 µg/mL).

For `O=C(Nc1nc(-c2ccccn2)cs1)C1COc2ccccc2O1` (stereo not given), the MIC90 was 3.7 µM (≈ 1.26 µg/mL).

For `Cc1ccc(-n2ncc3c(N4CCCNCC4)nc(C4CC4)nc32)cc1`, the MIC90 was 3.9 µM (≈ 1.36 µg/mL).

Work on `COc1ccc(NC(=O)c2ccc(CN3CCCCC3)o2)c(OC)c1` yielded an MIC90 of 7.2 µM (≈ 2.48 µg/mL).

For `Cc1cc(NC(=O)c2cccs2)n(-c2nc(C)c(C)c(=O)[nH]2)n1`, the MIC90 was 1.8 µM (≈ 0.593 µg/mL).

`CCc1ccc([C@@H]2C[C@H](C(F)(F)F)n3ncc(C(=O)NCc4ccc(OC)cc4)c3N2)cc1` gave an MIC90 of 2.7 µM (≈ 1.24 µg/mL).

`CC(C)(C)c1ccc(C(=O)Nc2nnc(-c3ccco3)o2)cc1` was tested, and the MIC90 was 4.3 µM (≈ 1.34 µg/mL).

`Br.CC(C)(C)c1ccccc1OCCCON1C(=N)N=C(N)NC1(C)C` showed an MIC90 of 1.8 µM.

For `CN(C)c1ccc(NC(=O)Nc2ccccc2C(F)(F)F)cc1`, the MIC90 was 6.4 µM (≈ 2.07 µg/mL).

Molecule `c1ccc(Cc2nnc(Sc3ccnc(N4CCN(c5ccncc5)CC4)n3)n2CCCN2CCOCC2)cc1` has an MIC90 of 2.7 µM (≈ 1.51 µg/mL).

`O=C(Nc1nnc(-c2ccc3c(c2)CCCC3)o1)c1ccc(Br)s1` showed an MIC90 of 4.3 µM (≈ 1.74 µg/mL).

`CSc1ccc(C(=O)Nc2nc(-c3ccccn3)cs2)cc1` was tested, and the MIC90 was 4.4 µM (≈ 1.44 µg/mL).

In the case of `O=C(NCCCn1nc(Cl)c(N2CCCNCC2)cc1=O)Nc1ccc(-c2ccccc2)cc1`, the MIC90 is reported as 3.7 µM (≈ 1.78 µg/mL).

In the case of `Cc1nnc(NCc2cccc(Cl)c2)c2ccccc12`, the MIC90 is reported as 1.5 µM (≈ 0.426 µg/mL).

`O=c1c2sc(-c3ccc(Cl)cc3)cc2ncn1-c1ccc2c(c1)OC[C@H](CN1CCCC1)O2` was tested, and the MIC90 was 2.5 µM (≈ 1.2 µg/mL).

`CCCCCNc1nc(N2CCCC2)c2c(c1C#N)CCN(C)C2` was tested, and the MIC90 was 1.6 µM (≈ 0.524 µg/mL).

`Cc1ccc(-c2nnc(NC(=O)c3ccc(Cl)s3)o2)c(C)c1` showed an MIC90 of 4 µM (≈ 1.34 µg/mL).

`COc1ccc2c(ccn2C(=O)OCCC2CCNCC2)c1` showed an MIC90 of 4.4 µM (≈ 1.33 µg/mL).

In the case of `O=C(COc1ccccc1)N1CCN(c2cnc3ccccc3n2)CC1`, the MIC90 is reported as 9.3 µM (≈ 3.24 µg/mL).

`COc1cc(Cl)c(Cl)cc1C(=O)Nc1cccc2c1CCN(C)C2` was tested, and the MIC90 was 4 µM (≈ 1.46 µg/mL).

Work on `O=c1c2sc(-c3ccc(Cl)cc3)cc2ncn1-c1ccc(OCCN2CCCC2)c(Cl)c1` yielded an MIC90 of 2.1 µM (≈ 1.02 µg/mL).

Work on `CCN(CC)CCCn1c(Sc2ccnc(N3CCN(c4ccncc4)CC3)n2)nnc1-c1ccccn1` yielded an MIC90 of 2.4 µM (≈ 1.27 µg/mL).

Work on `O=C(O)C(F)(F)F.c1ccc2c(-c3ccc(CNCC4CCNC4)cc3)cncc2c1` (stereo not given) yielded an MIC90 of 7.8 µM.

Work on `Cc1ccccc1CN1CCC(O)(c2ccc(Cl)c(C(F)(F)F)c2)CC1` yielded an MIC90 of 4.3 µM (≈ 1.65 µg/mL).

For `O=C(Nc1nnc(-c2cc(Cl)ccc2Cl)o1)c1ccc(Br)s1`, the MIC90 was 8.9 µM (≈ 3.73 µg/mL).

Work on `Oc1cc(CSc2ccc(Cl)cc2)nc(-c2ccccn2)n1` yielded an MIC90 of 5.3 µM (≈ 1.75 µg/mL).

Work on `c1ccc(SCc2nn3c(-c4ccccc4)nnc3s2)cc1` yielded an MIC90 of 7.5 µM (≈ 2.43 µg/mL).

For `COC(=O)COc1ccc(CCn2nnc(-c3ccc(C(F)(F)F)cc3)n2)cc1`, the MIC90 was 7.6 µM (≈ 3.09 µg/mL).

`CS(=O)(=O)Nc1cccc(-c2cnc3[nH]cc(-c4cccc(CCN)c4)c3c2)c1` showed an MIC90 of 9.8 µM (≈ 3.98 µg/mL).

`CCC(Sc1nc2ccccc2o1)C(=O)Nc1nccs1` (stereo not given) was tested, and the MIC90 was 5.7 µM (≈ 1.82 µg/mL).

For `CCc1c(C)nc(-c2cccc(C(F)(F)F)c2)nc1N1CCNCC1`, the MIC90 was 8.6 µM (≈ 3.01 µg/mL).

Molecule `O=C(Nc1nnc(-c2ccc(Cl)s2)o1)c1ccc(Cl)s1` has an MIC90 of 7.5 µM (≈ 2.6 µg/mL).

In the case of `CC(C)OC(=O)COc1ccc(-c2cnc(N(C)CCc3ccncc3)nc2)cc1`, the MIC90 is reported as 8.5 µM (≈ 3.46 µg/mL).

Work on `Clc1ccc(Nc2nc(-c3ccccn3)cs2)nc1` yielded an MIC90 of 1.2 µM (≈ 0.347 µg/mL).

`CCCCOc1ccc(C(=O)Nc2nc(-c3ccccn3)cs2)cc1OCC` was tested, and the MIC90 was 3.6 µM (≈ 1.43 µg/mL).

`CCCc1cc(-c2nc(-c3ccc4c(c3)OCO4)cs2)ccn1` gave an MIC90 of 6.7 µM (≈ 2.17 µg/mL).

In the case of `c1ccc(-c2nc(NC3CCCCC3)cc(C3CC3)n2)nc1`, the MIC90 is reported as 3.7 µM (≈ 1.09 µg/mL).

`Cc1cc2ncn(-c3nccc(N4CCN(Cc5ccncc5)CC4)n3)c2cc1C` showed an MIC90 of 2.8 µM (≈ 1.12 µg/mL).

In the case of `Cc1cc(OCC(=O)NCc2ccccc2)c2cc(Br)ccc2n1`, the MIC90 is reported as 4.6 µM (≈ 1.77 µg/mL).

With `c1ccc2c(Cc3nnc(Sc4ccnc(N5CCN(c6ccncc6)CC5)n4)n3CCN3CCOCC3)c[nH]c2c1` the MIC90 was 2.8 µM (≈ 1.63 µg/mL).

Molecule `O=C(Nc1nc(-c2ccccn2)cs1)c1cccc(S(=O)(=O)N2CCCCC2)c1` has an MIC90 of 5.2 µM (≈ 2.23 µg/mL).

`CCCCC1=NN(C(=O)c2ccncc2)C(O)(C(F)(F)F)C1` (stereo not given) gave an MIC90 of 5.5 µM (≈ 1.73 µg/mL).

With `Cn1c(=O)c2c([S+](C)[O-])snc2n(C)c1=O` (stereo not given) the MIC90 was 5.6 µM (≈ 1.45 µg/mL).

`CSc1ccccc1C(=O)Nc1nc(-c2ccccn2)cs1` gave an MIC90 of 3.8 µM (≈ 1.24 µg/mL).

In the case of `Cc1ccc(S(=O)(=O)c2nc(S(=O)(=O)c3ccccc3)sc2Cl)cc1`, the MIC90 is reported as 9.6 µM (≈ 3.97 µg/mL).

`O=C(CCC(=O)NNC(=O)c1ccco1)NNC(=O)c1ccco1` was tested, and the MIC90 was 8.6 µM (≈ 2.87 µg/mL).

Molecule `Cc1ccc(O)cc1Nc1ccnc2ccc(-c3cccc(CNCCN(C)C)c3)cc12` has an MIC90 of 9.1 µM (≈ 3.88 µg/mL).

Work on `CCOC(=O)c1cc(-c2csc(Nc3c(C)cc(C)cc3C)n2)on1` yielded an MIC90 of 7.7 µM (≈ 2.75 µg/mL).

Molecule `CN1CCN(c2cc(-c3ccncc3)nc(-c3ccccc3)n2)CC1` has an MIC90 of 8.5 µM (≈ 2.82 µg/mL).

`Cc1cc(OCC(=O)Nc2ccccc2)c2cc(Br)ccc2n1` was tested, and the MIC90 was 2 µM (≈ 0.742 µg/mL).

For `CCn1c(=O)c(=O)[nH]c2cc(C(=O)Nc3ccccc3Nc3ccc(OC)cc3)ccc21`, the MIC90 was 0.9 µM (≈ 0.387 µg/mL).

`CC(=O)N(C)c1ccc(Oc2ccnc(NCc3c(C)cccc3C)n2)cc1` was tested, and the MIC90 was 9.5 µM (≈ 3.58 µg/mL).

In the case of `Cn1c(CNCCc2nc(C(=O)N3Cc4ccccc4C3)cs2)nc2ccccc21`, the MIC90 is reported as 8.1 µM (≈ 3.38 µg/mL).

`Cc1ccc(NC(=O)CCC(=O)NNC(=O)c2cccs2)cc1C` gave an MIC90 of 8.3 µM (≈ 2.87 µg/mL).

Molecule `CCOc1ccc(-c2nc(-c3ccc(C(F)(F)F)c(O[C@@H]4CCN(C)C4)c3)no2)cc1` has an MIC90 of 3.2 µM (≈ 1.39 µg/mL).

Work on `COc1ccccc1-c1cc(O)c2c(C)nn(-c3ccccc3)c2n1` yielded an MIC90 of 2.1 µM (≈ 0.696 µg/mL).

`c1cc(COc2ccc(C3=NCCN3)cc2)nc(COc2ccc(C3=NCCN3)cc2)c1` was tested, and the MIC90 was 6.1 µM (≈ 2.61 µg/mL).

`O=C(Nc1ccccc1-c1nc(Cl)cs1)OCC1CCNCC1` showed an MIC90 of 5.2 µM (≈ 1.83 µg/mL).

`COc1cc(OC)c(C(=O)Nc2cccc3c2CCN(C)C3C)cc1Br` (stereo not given) was tested, and the MIC90 was 5.5 µM (≈ 2.31 µg/mL).

Work on `N=c1n(CCC2CCCCC2)nnn1Cc1ccccc1` yielded an MIC90 of 6.1 µM (≈ 1.74 µg/mL).

Work on `COc1ccc(Nc2nc(CN3CCN(Cc4ccc(C#N)cc4)CC3)cs2)cc1` yielded an MIC90 of 8.6 µM (≈ 3.61 µg/mL).

For `CC(=CC(=O)NC12CC3CC(CC(C3)C1)C2)c1cccc(Cl)c1`, the MIC90 was 7.8 µM (≈ 2.57 µg/mL).

`COc1ccc2sc(Nc3nc(-c4ccccn4)cs3)nc2c1` gave an MIC90 of 3.5 µM (≈ 1.19 µg/mL).

`CN(C)CCN(Cc1ccc(-c2cccc(CN)c2)cc1)C(=O)CCC1CCCC1` showed an MIC90 of 9.9 µM (≈ 4.04 µg/mL).

For `CSc1ccc(-c2nnc(NC(=O)c3cc(Cl)sc3Cl)o2)cc1`, the MIC90 was 9.4 µM (≈ 3.63 µg/mL).

With `Cc1cc(Oc2cccc3[nH]ccc23)nc(N2CCNCC2)n1` the MIC90 was 6.2 µM (≈ 1.92 µg/mL).

In the case of `Cc1cc(/C=C/c2cccc(C(=O)O)c2)cc(Cl)c1OC[C@@H]1CCCN1C`, the MIC90 is reported as 9.5 µM (≈ 3.67 µg/mL).

For `Cl.O=C(c1ccco1)N(CCCn1ccnc1)c1nc2c(Cl)cccc2s1`, the MIC90 was 7.2 µM.

With `Cc1cc(C)c2cc(C(=O)NC3CCCCC3)[nH]c2c1` the MIC90 was 2.8 µM (≈ 0.757 µg/mL).

`COc1ccc(O)c(C(=O)c2cnn(C(=O)c3cccs3)c2)c1` showed an MIC90 of 1.8 µM (≈ 0.591 µg/mL).

With `COc1ccc(CCNC(=O)c2c(C)nc3ccccn23)cc1` the MIC90 was 6.9 µM (≈ 2.13 µg/mL).

`CC(C)n1ncc2c(C(=O)NCC(c3ccco3)N3CCCC3)cc(-c3ccccc3)nc21` (stereo not given) was tested, and the MIC90 was 3.6 µM (≈ 1.6 µg/mL).

For `CCc1ccc(C2CC(C(F)(F)F)n3ncc(C(=O)NCc4ccc5c(c4)OCO5)c3N2)cc1` (stereo not given), the MIC90 was 4.8 µM (≈ 2.27 µg/mL).
